Measured values from patent US12459925B2, “Sulphonyl urea derivatives as NLRP3 inflammasome modulators” (priority 2017, dated 2025).

System: IL-1β release upon NLRP3 activation in peripheral blood mononuclear cells (PBMC)
Assay: PBMC IC50 determination assay (IL-1β release, Protocol A ELISA / Protocol B HTRF)
Format: cell-based
Settings: Homo sapiens; PBMC primed with LPS 3 h, compound 30 min, stimulated with ATP (5 mM) or nigericin (10 μM) 1 h; IL-1β in media; read-out: Average PBMC IC50
Procedure: The compounds of the present disclosure were tested for their inhibitory activity against IL-1β release upon NLRP3 activation in peripheral blood mononuclear cells (PBMC).
Isolated cells were seeded into the wells of a 96-well plate and incubated for 3 h with lipopolysaccharide (LPS). Following medium exchange, the compounds of the present disclosure were added (a single compound per well) and the cells were incubated for 30 min. Next, the cells were stimulated either with ATP (5 mM) or nigericin (10 μM) for 1 h and the cell culture media from the wells were collected for further analysis.
The release of IL1-β into the media was determined by a quantitative detection of IL-1β in the media using an IL-1β enzyme-linked immunosorbent assay (ELISA) Ready-SET-Go!, eBioscience cat. […] Subsequently, plates were blocked with blocking buffer for 1 h at room temperature (rt) and after washing with a buffer (PBS with 0.05% Tween-20) incubated with protein standard and culture media. […] Plates were washed and incubated with HRP-streptavidin for 30 min at rt and washed again. The signal was developed after addition of 3,3′,5,5′-tetramethylbenzidine-peroxidase (TMB) until colour appeared and the reaction was stopped by 2 M H2SO4. A microplate spectrophotometer (BioTek) was used to detect signals with 450 nm. The detection range of IL-1β ELISA was 2-150 ng/ml.
Isolated cells were seeded into the wells (280,000 cells/well) of a 96-well plate and incubated for 3 h with lipopolysaccharide (LPS, 1 μg/ml diluted 1000× from a 1 mg/ml stock solution). The compounds of the present disclosure were added (a single compound per well) and the cells were incubated for 30 min. Next, the cells were stimulated with ATP (5 mM final concentration diluted 20× from a 100 mM stock solution) for 1 h and the cell culture media from the wells were collected for further analysis.
The release of IL-1β into the media was determined by quantitative detection of IL-1β in the media using HTRF®, CisBio cat. No. 62HIL1BPEH. Briefly, cell culture supernatant were dispensed directly into the assay plate containing antibodies labelled with the HTRF® donor and acceptor. A microplate spectrophotometer (BMG) was used to detect signals at 655 nm and 620 nm. The detection range of IL-1β HTRF® was 39-6500 pg/ml.

Structure (SMILES)	IC50
CC(C)n1cc(N(C2CCCN(C)C2)S(=O)(=O)NC(=O)Nc2c3c(cc4c2CCC4)CCC3)cn1 (centres unmarked) [Compound 55]	< 1 µM
CC(C)n1cc(N(C2CCN(C)C2)S(=O)(=O)NC(=O)Nc2c3c(cc4c2CCC4)CCC3)cn1 (centres unmarked) [Compound 56]	< 1 µM
CN1CCC(CN(c2cnn(C)c2)S(=O)(=O)NC(=O)Nc2c3c(cc4c2CCC4)CCC3)C1 (centres unmarked) [Compound 57]	< 1 µM
CN1CC2(CC(N(c3cnn(C)c3)S(=O)(=O)NC(=O)Nc3c4c(cc5c3CCC5)CCC4)C2)C1 [Compound 58]	10 to 50 µM
CN1CC(N(c2cnn(C)c2)S(=O)(=O)NC(=O)Nc2c3c(cc4c2CCC4)CCC3)C1 [Compound 59]	< 1 µM
CN1CCC(N(c2cnn(C)c2)S(=O)(=O)NC(=O)Nc2c3c(cc4c2CCC4)CCC3)CC1C(F)(F)F (centres unmarked) [Compound 60]	< 1 µM
Cn1cc(N(C2CCN(CC(F)(F)F)C2)S(=O)(=O)NC(=O)Nc2c3c(cc4c2CCC4)CCC3)cn1 (centres unmarked) [Compound 61]	< 1 µM
CCN1CCCC(N(c2cnn(C)c2)S(=O)(=O)NC(=O)Nc2c3c(cc4c2CCC4)CCC3)C1 (centres unmarked) [Compound 62]	< 1 µM
Cn1cc(N(CCN2CCC2)S(=O)(=O)NC(=O)Nc2c3c(cc4c2CCC4)CCC3)cn1 [Compound 63]	< 1 µM
CC(C)N1CC(N(c2cnn(C)c2)S(=O)(=O)NC(=O)Nc2c3c(cc4c2CCC4)CCC3)C1 [Compound 64]	< 1 µM
Cn1cc(N(C2CCN(CC(F)(F)F)CC2)S(=O)(=O)NC(=O)Nc2c3c(cc4c2CCC4)CCC3)cn1 [Compound 65]	1 to 3 µM
Cn1cc(N(C2CC3(COC3)C2)S(=O)(=O)NC(=O)Nc2c3c(cc4c2CCC4)CCC3)cn1 [Compound 66]	1 to 3 µM
CN1CCCC(N(c2cnn(C)c2)S(=O)(=O)NC(=O)Nc2c3c(cc4c2CCC4)CCC3)CC1 (centres unmarked) [Compound 67]	< 1 µM
CN1CCCC1CN(c1cnn(C)c1)S(=O)(=O)NC(=O)Nc1c2c(cc3c1CCC3)CCC2 (centres unmarked) [Compound 68]	< 1 µM
Cn1cc(N(C2CC3(C2)CN(CC(F)(F)F)C3)S(=O)(=O)NC(=O)Nc2c3c(cc4c2CCC4)CCC3)cn1 [Compound 69]	3 to 10 µM
CCc1cc(CC)cc(NC(=O)NS(=O)(=O)N(c2cnn(C)c2)C2CCOCC2)c1 [Compound 70]	3 to 10 µM
CC(C)c1cccc(NC(=O)NS(=O)(=O)N(c2cnn(C)c2)C2CCOCC2)c1 [Compound 71]	10 to 50 µM
Cn1cc(N(C2CCOCC2)S(=O)(=O)NC(=O)Nc2cc(Cl)cc(Cl)c2)cn1 [Compound 72]	1 to 3 µM
CC(C)c1cc(NC(=O)NS(=O)(=O)N(c2cnn(C)c2)C2CCOCC2)cc(C(C)C)c1 [Compound 73]	1 to 3 µM
CC1CN(CCN(c2cnn(C)c2)S(=O)(=O)NC(=O)Nc2c3c(cc4c2CCC4)CCC3)C1 [Compound 74]	3 to 10 µM
CCc1cc(NC(=O)NS(=O)(=O)N(c2cnn(C)c2)C2CCOCC2)cc(C(F)(F)F)c1 [Compound 75]	< 1 µM

Structure (SMILES)	IC50
CCc1cc(C)cc(NC(=O)NS(=O)(=O)N(c2cnn(C)c2)C2CCOCC2)c1 [Compound 76]	1 to 3 µM
CCc1cc(Cl)cc(NC(=O)NS(=O)(=O)N(c2cnn(C)c2)C2CCOCC2)c1 [Compound 77]	1 to 3 µM
Cn1cc(N(C2CCOCC2(C)C)S(=O)(=O)NC(=O)Nc2c3c(cc4c2CCC4)CCC3)cn1 (centres unmarked) [Compound 78]	< 1 µM
Cn1cc(N(C2CCOC(C)(C)C2)S(=O)(=O)NC(=O)Nc2c3c(cc4c2CCC4)CCC3)cn1 (centres unmarked) [Compound 79]	< 1 µM
CCc1cc(NC(=O)NS(=O)(=O)N(c2cnn(C)c2)C2CCOCC2)cc(CC)c1F [Compound 80]	1 to 3 µM
CCc1cc(NC(=O)NS(=O)(=O)N(c2cnn(C)c2)C2CCOCC2)cc(C(C)C)c1 [Compound 81]	1 to 3 µM
CN1CC(N(c2cnn(C)c2)S(=O)(=O)NC(=O)Nc2c3c(cc4c2CCC4)CCC3)CCC1=O (centres unmarked) [Compound 82]	< 1 µM
CN1CC(N(c2cnn(C)c2)S(=O)(=O)NC(=O)Nc2c3c(cc4c2CCC4)CCC3)CC1=O (centres unmarked) [Compound 83]	1 to 3 µM
C[C@H]1CC(N(c2cnn(C)c2)S(=O)(=O)NC(=O)Nc2c3c(cc4c2CCC4)CCC3)CCO1 (some centres unmarked) [Compound 84]	< 1 µM
C[C@@H]1CC(N(c2cnn(C)c2)S(=O)(=O)NC(=O)Nc2c3c(cc4c2CCC4)CCC3)CCO1 (some centres unmarked) [Compound 85]	< 1 µM
Cc1ncc(N(C2CCOCC2)S(=O)(=O)NC(=O)Nc2c3c(cc4c2CCC4)CCC3)cn1 [Compound 86]	< 1 µM
Cc1noc(N(C2CCOCC2)S(=O)(=O)NC(=O)Nc2c3c(cc4c2CCC4)CCC3)c1C [Compound 87]	< 1 µM
CC1CCCC(C)C1NC(=O)NS(=O)(=O)N(c1cnn(C)c1)C1CCOCC1 (centres unmarked) [Compound 88]	< 1 µM
CC(C)c1cc(Cl)cc(NC(=O)NS(=O)(=O)N(c2cnn(C)c2)C2CCOCC2)c1 [Compound 89]	1 to 3 µM
CCOc1cc(NC(=O)NS(=O)(=O)N(c2cnn(C)c2)C2CCOCC2)cc(OCC)c1 [Compound 90]	10 to 50 µM
CN1CCCC(N(c2cnn(C)c2)S(=O)(=O)NC(=O)Nc2cc(Cl)cc(Cl)c2)C1 (centres unmarked) [Compound 91]	< 1 µM
Cn1cc(N(C2CCOCC2)S(=O)(=O)NC(=O)Nc2cc(Cl)cc(OC(F)(F)F)c2)cn1 [Compound 92]	1 to 3 µM
COc1cc(Cl)cc(NC(=O)NS(=O)(=O)N(c2cnn(C)c2)C2CCOCC2)c1 [Compound 93]	< 1 µM
Cn1cc(N(C2CCOCC2)S(=O)(=O)NC(=O)Nc2cc(Cl)cc(Cl)c2F)cn1 [Compound 94]	1 to 3 µM
Cn1ccc(N(C2CCOCC2)S(=O)(=O)NC(=O)Nc2c3c(cc4c2CCC4)CCC3)c1 [Compound 95]	< 1 µM
Cn1ncc(N(C2CCOCC2)S(=O)(=O)NC(=O)Nc2c3c(cc4c2CCC4)CCC3)n1 [Compound 96]	< 1 µM

Structure (SMILES)	IC50
CCc1cc(NC(=O)NS(=O)(=O)N(c2cnn(C)c2)C2CCCN(C)C2)cc(C(F)(F)F)c1 (centres unmarked) [Compound 97]	< 1 µM
CC(C)Cc1cc(Cl)cc(NC(=O)NS(=O)(=O)N(c2cnn(C)c2)C2CCOCC2)c1 [Compound 98]	1 to 3 µM
Cc1nn(C)cc1N(C1CCOCC1)S(=O)(=O)NC(=O)Nc1c2c(cc3c1CCC3)CCC2 [Compound 99]	< 1 µM
Cc1ncc(N(C2CCOCC2)S(=O)(=O)NC(=O)Nc2c3c(cc4c2CCC4)CCC3)c(C)n1 [Compound 100]	1 to 3 µM
CC(C)c1cc(Cl)cc(NC(=O)NS(=O)(=O)N(c2cnn(C)c2)C2CCCN(C)C2)c1 (centres unmarked) [Compound 101]	< 1 µM
CCc1cc(NC(=O)NS(=O)(=O)N(C[C@@H]2CCCN2C)c2cnn(C)c2)cc(C(F)(F)F)c1 [Compound 102]	< 1 µM
Cc1nn(C)cc1N(C1CCCN(C)C1)S(=O)(=O)NC(=O)Nc1c2c(cc3c1CCC3)CCC2 (centres unmarked) [Compound 103]	< 1 µM
CC(C)c1ncc(N(C2CCOCC2)S(=O)(=O)NC(=O)Nc2c3c(cc4c2CCC4)CCC3)cn1 [Compound 104]	< 1 µM
CCC(C)c1cc(Cl)cc(NC(=O)NS(=O)(=O)N(c2cnn(C)c2)C2CCOCC2)c1 (centres unmarked) [Compound 105]	< 1 µM
Cn1cc(N(C2CCOCC2)S(=O)(=O)NC(=O)Nc2cc(Cl)cc(OCC(F)(F)F)c2)cn1 [Compound 106]	< 1 µM
CN1CCC[C@H]1CN(c1cnn(C)c1)S(=O)(=O)NC(=O)Nc1c2c(cc3c1CCC3)CCC2 [Compound 107]	< 1 µM
Cc1csc(N(C2CCOCC2)S(=O)(=O)NC(=O)Nc2c3c(cc4c2CCC4)CCC3)n1 [Compound 108]	< 1 µM
CCc1cc(N(C2CCOCC2)S(=O)(=O)NC(=O)Nc2c3c(cc4c2CCC4)CCC3)on1 [Compound 109]	< 1 µM
CN1CCC[C@@H]1CN(c1cnn(C)c1)S(=O)(=O)NC(=O)Nc1c2c(cc3c1CCC3)CCC2 [Compound 110]	< 1 µM
CN1CCC1CN(c1cnn(C)c1)S(=O)(=O)NC(=O)Nc1c2c(cc3c1CCC3)CCC2 (centres unmarked) [Compound 111]	< 1 µM
CN1CCC[C@@H]1CN(c1cnn(C)c1)S(=O)(=O)NC(=O)Nc1cc(Cl)cc(Cl)c1 [Compound 112]	< 1 µM
Cc1cc(N(C2CCOCC2)S(=O)(=O)NC(=O)Nc2c3c(cc4c2CCC4)CCC3)sn1 [Compound 113]	< 1 µM
CCc1cc(NC(=O)NS(=O)(=O)N(C[C@H]2CCCN2C)c2cnn(C)c2)cc(C(F)(F)F)c1 [Compound 114]	< 1 µM
CCCCc1cc(Cl)cc(NC(=O)NS(=O)(=O)N(c2cnn(C)c2)C2CCOCC2)c1 [Compound 115]	< 1 µM
Cc1noc(N(C2CCCN(C)C2)S(=O)(=O)NC(=O)Nc2c3c(cc4c2CCC4)CCC3)c1C (centres unmarked) [Compound 116]	< 1 µM
